Marks after values point to notes of the source that are not given here.
Test system: OLETF rats
Assay: Systolic blood pressure of OLETF rats fed CLA-supplemented diet (indirect tail cuff method)
Format: in vivo, rat
Conditions: male OLETF rats; for Blood pressure, initial value / Blood pressure, 1 Week / Blood pressure, 2 Weeks / Blood pressure, 3 Weeks: systolic; for Blood pressure, initial value: baseline before feeding the diet supplemented with 0.5% of the substance; for Blood pressure, 1 Week / Blood pressure, 2 Weeks / Blood pressure, 3 Weeks: diet supplemented with 0.5% of the substance; for Blood pressure, 1 Week: 1 week of feeding; for Blood pressure, 2 Weeks: 2 weeks of feeding; for Blood pressure, 3 Weeks: 3 weeks of feeding; for Systolic blood pressure compared with control group (in words): 0.5% in diet, up to 3 weeks, control = high linoleic safflower oil
Source text: Male OLETF rats (7 weeks old), an animal model of non-insulin dependent diabetes mellitus, were assigned to three groups that were fed ad libitum with a semisynthetic diet (AIN-76) supplemented with 0.5% high linoleic safflower oil (Rinoru Oil Mills Co., Ltd.; control group), or a semisynthetic diet supplemented with 0.5% 9cis,11trans-CLA, and a semisynthetic diet supplemented with 0.5% 10trans,12cis-CLA for three weeks. […]
It has been found from the above-described results that systolic blood pressure is lowered in rats fed with the 10trans, 12cis-CLA.

| Compound | Blood pressure, initial value [mmHg] | Blood pressure, 1 Week [mmHg] | Blood pressure, 2 Weeks | Blood pressure, 3 Weeks | Systolic blood pressure compared with control group (in words) | Systolic blood pressure compared with control group (in words) (listed as 10trans,12cis-CLA) |
| --- | --- | --- | --- | --- | --- | --- |
| CCCCCC/C=C/C=C\CCCCCCCC(=O)O [9cis, 11trans-CLA, 9cis,11trans-CLA] | 103 ± 3 | 131 ± 3 | 148 ± 4^a mmHg | 154 ± 4^a mmHg |  |  |
| CCCCC/C=C\C=C\CCCCCCCCC(=O)O [10trans, 12cis-CLA, 10trans,12cis-CLA] | 106 ± 4 | 125 ± 6 | 128 ± 5^b mmHg | 132 ± 3^b mmHg | lowered | significantly suppressed |
| conjugated linoleic acid [CLA] |  |  |  |  | tends to lower |  |

— patent US20050002991A1, “Prophylactic agent of hypertension containing a conjugated fatty acid as an effective ingredient and the use thereof” (RINORU OIL MILLS CO., LTD., priority 2003, published 2005)
